Experimental data reported in patent US7521418B2, “Use of a polyene macrolide antifungal agent in combination with a glycopeptide antibacterial agent” (Theravance, Inc., priority 2003, dated 2009).

Tested on: G. candidum ATCC 62231
Assay: Checkerboard MIC assay, FICI
Assay type: cell-based, Geotricium candidum
Conditions: combination with Compound 1
Excerpt: The following assay was used to determine the minimum inhibitory concentration (MIC) and fractional inhibitory concentration index (FICI) for combinations of an antifungal agent and a glycopeptide antibacterial agent. This assay and methods for calculating FICI are well known in the art. See, for example, Eliopoulos, E. G. and R. Moellering, Jr. “Antimicrobial Combinations” in Antibiotics in Laboratory Medicine, edited by V. Lorian, 4th Ed., Williams & Wilkins, Baltimore, MD, pp. 330-396 (1996); […] et al., Antimicrobial Agents and Chemotherapy 47(4):1416-1418 (2003); or […] et al., Antimicrobial Agents and Chemotherapy 46(10):3323-3326 (2002). […] The MIC of the glycopeptide antibacterial agent determined from this experiment was used in FIC calculations. […]

Structure (SMILES): C[C@@H]1[C@H](O)[C@@H](C)/C=C/C=C/C=C/C=C/C=C/C=C/C=C/[C@H](O[C@@H]2O[C@H](C)[C@@H](O)[C@H](N)[C@@H]2O)C[C@@H]2O[C@](O)(C[C@@H](O)C[C@@H](O)[C@H](O)CC[C@@H](O)C[C@@H](O)CC(=O)O[C@H]1C)C[C@H](O)[C@H]2C(=O)O [Amphotericin B]
- FICI: 0.63

Structure (SMILES): C[C@@H]1[C@H](O)[C@@H](C)/C=C/C=C/CC/C=C/C=C/C=C/C=C/C(O[C@H]2O[C@H](C)[C@@H](O)[C@H](N)[C@@H]2O)CC2O[C@](O)(CC(O)C(O)CCC(O)CC(O)CC(O)CC(=O)O[C@H]1C)CC(O)C2C(=O)O (some centres unmarked) [Nystatin]
- FICI: 0.31
